Measurements as given in the NIST ThermoML archive (doi:10.1021/je0501843).
“And” between values parts separate entries of the source, which are not always exact repeats. Identical values can stand only once.

Test: molar heat capacity at constant volume; wn = mass fraction of the nth substance listed
Conditions: Fluid (supercritical or subcritical phases), Vacuum adiabatic calorimetry, w1 = 0.5001

FC(F)C(F)(F)F [pentafluoroethane] + FCF
Conditions	molar heat capacity at constant volume
301 K, 4414 kPa	70.23 J/K/mol
302 K, 4977 kPa	70.17 J/K/mol
303 K, 5537 kPa	70.3 J/K/mol
303 K, 5540 kPa	70.03 J/K/mol
304 K, 6101 kPa	69.82 J/K/mol
304 K, 6103 kPa	69.96 J/K/mol
305 K, 6663 kPa	69.83 J/K/mol and 69.76 J/K/mol
306 K, 7227 kPa	69.97 J/K/mol
306 K, 7228 kPa	70.45 J/K/mol
307 K, 7791 kPa	70.07 J/K/mol
307 K, 7792 kPa	70.29 J/K/mol
308 K, 8356 kPa	69.75 J/K/mol
308 K, 8357 kPa	69.97 J/K/mol
309 K, 8918 kPa	70.23 J/K/mol and 69.75 J/K/mol
310 K, 9482 kPa	70.03 J/K/mol
310 K, 9484 kPa	69.9 J/K/mol
311 K, 10048 kPa	70.12 J/K/mol
311 K, 10049 kPa	69.86 J/K/mol
312 K, 10614 kPa	69.67 J/K/mol
312 K, 10615 kPa	69.66 J/K/mol
313 K, 11178 kPa	69.33 J/K/mol
313 K, 11179 kPa	69.43 J/K/mol
314 K, 11741 kPa	69.02 J/K/mol
314 K, 11743 kPa	69.3 J/K/mol
315 K, 12309 kPa	69.15 J/K/mol and 68.67 J/K/mol
316 K, 12875 kPa	69.06 J/K/mol
316 K, 12877 kPa	68.75 J/K/mol
317 K, 13440 kPa	68.83 J/K/mol and 68.21 J/K/mol
318 K, 14003 kPa	67.4 J/K/mol
318 K, 14005 kPa	68 J/K/mol
319 K, 14570 kPa	67.78 J/K/mol
319 K, 14571 kPa	68.05 J/K/mol
320 K, 15135 kPa	67.81 J/K/mol
320 K, 15137 kPa	68.49 J/K/mol
321 K, 15700 kPa	67.05 J/K/mol
321 K, 15701 kPa	67.37 J/K/mol
322 K, 16263 kPa	66.48 J/K/mol
322 K, 16265 kPa	66.83 J/K/mol
323 K, 16830 kPa	66.97 J/K/mol and 66.81 J/K/mol
324 K, 17394 kPa	66.92 J/K/mol
324 K, 17396 kPa	66.39 J/K/mol
325 K, 5448 kPa	69.93 J/K/mol
325 K, 17959 kPa	66.13 J/K/mol
325 K, 17961 kPa	66.31 J/K/mol
326 K, 5835 kPa	69.81 J/K/mol
326 K, 5836 kPa	71.48 J/K/mol
326 K, 18524 kPa	65.89 J/K/mol
326 K, 18525 kPa	66.07 J/K/mol
327 K, 6224 kPa	70.12 J/K/mol
327 K, 6225 kPa	69.92 J/K/mol
327 K, 19088 kPa	66.16 J/K/mol
327 K, 19090 kPa	66.42 J/K/mol
328 K, 6615 kPa	70.49 J/K/mol
328 K, 6616 kPa	71.47 J/K/mol
328 K, 19652 kPa	66.1 J/K/mol
328 K, 19655 kPa	66.08 J/K/mol
329 K, 7006 kPa	70.47 J/K/mol
329 K, 7007 kPa	71.63 J/K/mol
330 K, 7397 kPa	69.74 J/K/mol
330 K, 7399 kPa	71.02 J/K/mol
331 K, 7788 kPa	69.69 J/K/mol
331 K, 7790 kPa	71.06 J/K/mol
332 K, 8183 kPa	71.27 J/K/mol
332 K, 8184 kPa	70.57 J/K/mol
333 K, 8579 kPa	70.36 J/K/mol and 71.51 J/K/mol
334 K, 8970 kPa	71.08 J/K/mol
334 K, 8971 kPa	69.51 J/K/mol
335 K, 9364 kPa	69.28 J/K/mol and 70.76 J/K/mol
336 K, 9759 kPa	69.92 J/K/mol and 70.89 J/K/mol
337 K, 10156 kPa	71.33 J/K/mol
337 K, 10157 kPa	70.6 J/K/mol
338 K, 6179 kPa	73.09 J/K/mol
338 K, 10552 kPa	71.08 J/K/mol
338 K, 10553 kPa	69.86 J/K/mol
339 K, 6478 kPa	73.25 J/K/mol
339 K, 10948 kPa	68.64 J/K/mol and 70.46 J/K/mol
340 K, 6782 kPa	73.55 J/K/mol
340 K, 11344 kPa	69.16 J/K/mol
340 K, 11346 kPa	71.1 J/K/mol
341 K, 7089 kPa	73.85 J/K/mol
341 K, 11743 kPa	69.77 J/K/mol
341 K, 11745 kPa	71.13 J/K/mol
342 K, 7389 kPa	73.14 J/K/mol
342 K, 12139 kPa	69.04 J/K/mol
342 K, 12142 kPa	70.69 J/K/mol
343 K, 7693 kPa	72.74 J/K/mol
343 K, 12536 kPa	68.97 J/K/mol
343 K, 12538 kPa	70.99 J/K/mol
344 K, 7998 kPa	73.01 J/K/mol
344 K, 12935 kPa	69.06 J/K/mol
344 K, 12936 kPa	70.57 J/K/mol
345 K, 8306 kPa	73.42 J/K/mol
345 K, 13334 kPa	70.04 J/K/mol
346 K, 8612 kPa	73.52 J/K/mol
346 K, 13733 kPa	70.31 J/K/mol
347 K, 6281 kPa	76.51 J/K/mol
347 K, 8917 kPa	72.76 J/K/mol
347 K, 14131 kPa	69.61 J/K/mol
348 K, 6505 kPa	75.76 J/K/mol
348 K, 9225 kPa	72.31 J/K/mol
348 K, 14528 kPa	69.08 J/K/mol
349 K, 5380 kPa	96.64 J/K/mol
349 K, 6732 kPa	76.89 J/K/mol
349 K, 9535 kPa	72.88 J/K/mol
349 K, 14929 kPa	70.2 J/K/mol
350 K, 5486 kPa	95.02 J/K/mol
350 K, 5543 kPa	91.24 J/K/mol
350 K, 5720 kPa	84.88 J/K/mol
350 K, 6957 kPa	76.37 J/K/mol
350 K, 9844 kPa	72.65 J/K/mol
350 K, 15331 kPa	69.99 J/K/mol
351 K, 5591 kPa	91.71 J/K/mol
351 K, 5661 kPa	90.24 J/K/mol
351 K, 5866 kPa	81.35 J/K/mol
351 K, 7184 kPa	75.16 J/K/mol
351 K, 10153 kPa	72.45 J/K/mol
351 K, 15729 kPa	68.92 J/K/mol
352 K, 5697 kPa	89.08 J/K/mol
352 K, 5778 kPa	87.68 J/K/mol
352 K, 5877 kPa	87.6 J/K/mol
352 K, 6013 kPa	80.15 J/K/mol
352 K, 7411 kPa	74.15 J/K/mol
352 K, 10462 kPa	72.57 J/K/mol
352 K, 16128 kPa	68.79 J/K/mol
353 K, 5802 kPa	88.36 J/K/mol
353 K, 5898 kPa	87.13 J/K/mol
353 K, 6010 kPa	87.42 J/K/mol
353 K, 6163 kPa	80.29 J/K/mol
353 K, 7640 kPa	75.09 J/K/mol
353 K, 10771 kPa	72.4 J/K/mol
353 K, 16529 kPa	69.17 J/K/mol
354 K, 5907 kPa	87.38 J/K/mol
354 K, 6017 kPa	86.01 J/K/mol
354 K, 6144 kPa	86.89 J/K/mol
354 K, 6312 kPa	80.47 J/K/mol
354 K, 7867 kPa	74.78 J/K/mol
354 K, 11082 kPa	72.54 J/K/mol
354 K, 16929 kPa	68.92 J/K/mol
355 K, 6013 kPa	85.59 J/K/mol
355 K, 6136 kPa	84.29 J/K/mol
355 K, 6277 kPa	85.22 J/K/mol
355 K, 6460 kPa	78.25 J/K/mol
355 K, 8099 kPa	73.81 J/K/mol
355 K, 11393 kPa	71.62 J/K/mol
355 K, 17330 kPa	68.05 J/K/mol
356 K, 6119 kPa	85.68 J/K/mol
356 K, 6256 kPa	84 J/K/mol
356 K, 6409 kPa	84.29 J/K/mol
356 K, 6610 kPa	77.58 J/K/mol
356 K, 8331 kPa	73.96 J/K/mol
356 K, 11703 kPa	71.68 J/K/mol
356 K, 17728 kPa	68.48 J/K/mol
357 K, 6227 kPa	86.16 J/K/mol
357 K, 6375 kPa	83.21 J/K/mol
357 K, 6544 kPa	84.6 J/K/mol
357 K, 6762 kPa	78.59 J/K/mol
357 K, 8563 kPa	73.79 J/K/mol
357 K, 12015 kPa	72.2 J/K/mol
357 K, 18129 kPa	68.93 J/K/mol
358 K, 6332 kPa	84.37 J/K/mol
358 K, 6496 kPa	82.34 J/K/mol
358 K, 6679 kPa	84.32 J/K/mol
358 K, 6913 kPa	78.26 J/K/mol
358 K, 8795 kPa	73.5 J/K/mol
358 K, 12328 kPa	72.12 J/K/mol
358 K, 18529 kPa	68.62 J/K/mol
359 K, 6438 kPa	82.91 J/K/mol
359 K, 6616 kPa	81.68 J/K/mol
359 K, 6814 kPa	82.54 J/K/mol
359 K, 7064 kPa	76.43 J/K/mol
359 K, 9028 kPa	72.9 J/K/mol
359 K, 12639 kPa	71.57 J/K/mol
359 K, 18928 kPa	68.27 J/K/mol
360 K, 6544 kPa	82.44 J/K/mol
360 K, 6737 kPa	80.97 J/K/mol
360 K, 6948 kPa	82 J/K/mol
360 K, 7219 kPa	76.78 J/K/mol
360 K, 9258 kPa	72.64 J/K/mol
360 K, 12952 kPa	70.73 J/K/mol
361 K, 6650 kPa	82.84 J/K/mol
361 K, 6858 kPa	80.53 J/K/mol
361 K, 7085 kPa	81.72 J/K/mol
361 K, 7368 kPa	77.24 J/K/mol
361 K, 9493 kPa	73.35 J/K/mol
361 K, 13265 kPa	71.22 J/K/mol
362 K, 6758 kPa	82.74 J/K/mol
362 K, 6980 kPa	80.56 J/K/mol
362 K, 7222 kPa	81.91 J/K/mol
362 K, 7523 kPa	75.41 J/K/mol
362 K, 9726 kPa	73.82 J/K/mol
362 K, 13581 kPa	70.53 J/K/mol
363 K, 6864 kPa	81.25 J/K/mol
363 K, 7101 kPa	80.13 J/K/mol
363 K, 7357 kPa	81.64 J/K/mol
363 K, 7676 kPa	75.63 J/K/mol
363 K, 9958 kPa	73.52 J/K/mol
